Experiments:
Assay type in all cases: biochemical
PI3Kbeta = target: T1, PI3Kbeta (Homo sapiens, UniProt P42338); assay: PI3K KinaseGlo assay, PI3Kbeta; conditions: 1 μM ATP, 25 nM enzyme, 30 mins
T1 construct: p85α iSH2 domain (fusion partner); His tag (C); made in house; host or cells: baculovirus / Tn5 insect cells

PI3Kalpha = target: T2, PI3Kalpha (Homo sapiens, UniProt P42336); assay: PI3K KinaseGlo assay, PI3Kalpha; conditions: 1 μM ATP, 10 nM enzyme, 30 mins
T2 construct: His6 (C); made in house; host or cells: baculovirus / Tn5 insect cells
T2 sequence (P42336 with tags, fused parts or gaps): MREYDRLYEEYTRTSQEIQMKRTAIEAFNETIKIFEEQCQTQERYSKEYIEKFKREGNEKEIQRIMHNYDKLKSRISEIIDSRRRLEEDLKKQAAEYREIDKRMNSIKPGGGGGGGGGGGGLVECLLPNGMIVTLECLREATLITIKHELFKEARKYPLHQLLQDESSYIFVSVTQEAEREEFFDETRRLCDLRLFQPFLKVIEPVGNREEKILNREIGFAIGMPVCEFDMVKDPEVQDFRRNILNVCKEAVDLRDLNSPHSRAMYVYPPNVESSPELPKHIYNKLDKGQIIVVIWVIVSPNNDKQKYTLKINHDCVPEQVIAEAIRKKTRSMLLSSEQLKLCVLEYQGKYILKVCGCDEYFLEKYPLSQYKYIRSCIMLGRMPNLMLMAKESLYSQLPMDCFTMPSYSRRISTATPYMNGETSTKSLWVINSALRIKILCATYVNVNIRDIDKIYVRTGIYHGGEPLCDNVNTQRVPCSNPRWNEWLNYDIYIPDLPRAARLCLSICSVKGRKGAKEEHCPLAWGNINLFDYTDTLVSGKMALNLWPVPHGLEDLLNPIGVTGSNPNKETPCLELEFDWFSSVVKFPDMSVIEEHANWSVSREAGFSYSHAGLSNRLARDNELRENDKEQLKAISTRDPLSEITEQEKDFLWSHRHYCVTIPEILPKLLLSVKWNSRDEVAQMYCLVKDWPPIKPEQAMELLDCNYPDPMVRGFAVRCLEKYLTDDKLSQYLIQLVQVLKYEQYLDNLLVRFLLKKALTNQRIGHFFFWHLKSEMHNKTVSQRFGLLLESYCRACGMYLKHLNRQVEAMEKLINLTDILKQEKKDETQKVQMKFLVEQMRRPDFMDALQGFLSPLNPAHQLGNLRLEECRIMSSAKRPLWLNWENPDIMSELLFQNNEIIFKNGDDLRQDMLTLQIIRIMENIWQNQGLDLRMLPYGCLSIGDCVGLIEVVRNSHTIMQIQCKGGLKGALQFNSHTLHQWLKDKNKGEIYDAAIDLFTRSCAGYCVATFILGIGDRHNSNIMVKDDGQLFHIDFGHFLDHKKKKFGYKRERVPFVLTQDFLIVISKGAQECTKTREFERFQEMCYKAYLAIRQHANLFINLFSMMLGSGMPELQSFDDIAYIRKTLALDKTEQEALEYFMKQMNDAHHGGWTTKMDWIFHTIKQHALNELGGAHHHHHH

PI3Kdelta = target: T3, PI3Kdelta (Homo sapiens, UniProt O00329); assay: PI3K KinaseGlo assay, PI3Kdelta; conditions: 1 μM ATP, 10 nM enzyme, 30 mins
T3 construct: for the full-length p110δ subunit were generated and fused by overlapping PCR; His tag (C); made in house; host or cells: baculovirus / Tn5 insect cells
T3 sequence (O00329 with tags, fused parts or gaps): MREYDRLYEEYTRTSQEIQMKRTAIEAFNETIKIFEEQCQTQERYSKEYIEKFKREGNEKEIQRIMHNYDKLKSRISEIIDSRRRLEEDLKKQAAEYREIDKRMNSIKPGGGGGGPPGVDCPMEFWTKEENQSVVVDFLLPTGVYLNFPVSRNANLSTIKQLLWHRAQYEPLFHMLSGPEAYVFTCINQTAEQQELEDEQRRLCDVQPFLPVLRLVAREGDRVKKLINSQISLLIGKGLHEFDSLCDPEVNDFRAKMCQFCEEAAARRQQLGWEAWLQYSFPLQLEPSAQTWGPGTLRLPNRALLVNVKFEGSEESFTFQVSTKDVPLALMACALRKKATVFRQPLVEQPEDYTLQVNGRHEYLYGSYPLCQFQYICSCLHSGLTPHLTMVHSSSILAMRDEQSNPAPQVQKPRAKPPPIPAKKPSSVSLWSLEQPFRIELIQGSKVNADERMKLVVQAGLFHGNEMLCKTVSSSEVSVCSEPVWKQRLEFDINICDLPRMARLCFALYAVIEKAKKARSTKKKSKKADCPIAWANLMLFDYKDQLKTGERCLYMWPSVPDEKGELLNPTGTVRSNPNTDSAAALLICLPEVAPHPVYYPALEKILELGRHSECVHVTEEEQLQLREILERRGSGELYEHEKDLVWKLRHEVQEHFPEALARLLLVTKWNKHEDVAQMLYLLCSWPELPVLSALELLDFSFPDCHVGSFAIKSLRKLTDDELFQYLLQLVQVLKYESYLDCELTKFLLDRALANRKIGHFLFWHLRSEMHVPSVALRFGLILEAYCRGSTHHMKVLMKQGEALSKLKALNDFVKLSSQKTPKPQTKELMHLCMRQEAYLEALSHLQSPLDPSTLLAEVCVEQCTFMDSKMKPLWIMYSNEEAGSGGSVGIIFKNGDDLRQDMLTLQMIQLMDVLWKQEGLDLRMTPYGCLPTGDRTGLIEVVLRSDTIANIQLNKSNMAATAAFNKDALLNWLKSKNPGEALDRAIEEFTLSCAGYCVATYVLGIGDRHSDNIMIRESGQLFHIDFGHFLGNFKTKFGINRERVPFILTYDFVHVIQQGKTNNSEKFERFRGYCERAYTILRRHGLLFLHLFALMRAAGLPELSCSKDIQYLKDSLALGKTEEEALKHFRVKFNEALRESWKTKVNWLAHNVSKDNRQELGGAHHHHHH

PI3Kgamma = target: T4, PI3Kgamma (Homo sapiens, UniProt P48736, Q459R); assay: PI3K KinaseGlo assay, PI3Kgamma; conditions: 1 μM ATP, 150 nM enzyme, 90 mins
T4 construct: Constructs lacking the N-terminal 144 aa; His6 (C); made in house; host or cells: Tn5 insect cells; construct from Roger Williams lab (MRC LMB)
T4 sequence (P48736 with tags, fused parts or gaps Q459R): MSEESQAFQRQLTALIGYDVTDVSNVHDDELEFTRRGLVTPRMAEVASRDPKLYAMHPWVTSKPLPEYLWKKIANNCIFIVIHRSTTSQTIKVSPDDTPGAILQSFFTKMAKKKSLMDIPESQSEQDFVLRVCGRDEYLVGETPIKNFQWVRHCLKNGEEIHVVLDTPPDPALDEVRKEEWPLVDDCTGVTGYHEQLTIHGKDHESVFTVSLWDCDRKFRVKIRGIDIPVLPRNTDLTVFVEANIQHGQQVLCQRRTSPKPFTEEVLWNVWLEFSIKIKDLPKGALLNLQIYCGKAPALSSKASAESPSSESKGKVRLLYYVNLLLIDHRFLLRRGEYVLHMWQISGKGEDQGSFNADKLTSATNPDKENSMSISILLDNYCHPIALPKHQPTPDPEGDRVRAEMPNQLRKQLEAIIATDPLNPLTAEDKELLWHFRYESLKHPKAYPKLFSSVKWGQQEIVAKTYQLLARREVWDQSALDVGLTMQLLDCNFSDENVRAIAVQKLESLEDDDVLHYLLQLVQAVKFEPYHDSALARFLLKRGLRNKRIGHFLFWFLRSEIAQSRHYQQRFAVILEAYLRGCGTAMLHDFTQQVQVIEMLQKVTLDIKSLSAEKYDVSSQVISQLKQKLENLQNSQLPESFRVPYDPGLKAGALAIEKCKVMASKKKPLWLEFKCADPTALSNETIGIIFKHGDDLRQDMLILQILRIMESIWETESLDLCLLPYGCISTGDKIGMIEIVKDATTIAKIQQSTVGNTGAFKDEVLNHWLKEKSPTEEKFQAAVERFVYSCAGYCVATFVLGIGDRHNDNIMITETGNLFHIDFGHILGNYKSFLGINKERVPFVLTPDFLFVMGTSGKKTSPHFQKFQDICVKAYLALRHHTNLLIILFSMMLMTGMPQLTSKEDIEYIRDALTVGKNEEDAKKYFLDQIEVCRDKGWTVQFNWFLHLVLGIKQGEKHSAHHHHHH
Method: PI3K KinaseGlo assay: […] of compound dilutions were dispensed onto black 384-well low volume Non Binding Styrene (NBS) plates (Costar Cat. No. NBS#3676). L-a-phosphatidylinositol (PI), provided as 10 mg/ml solution in methanol, was transferred into a glass tube and dried under nitrogen beam. It was then resuspended in 3% OctylGlucoside (OG) by vortexing and stored at 4° C. The KinaseGlo Luminescent Kinase Assay (Promega, Madison/WI, USA) is a homogeneous HTS method of measuring kinase activity by quantifying the amount of ATP remaining in solution following a kinase reaction.
5 μL of a mix of PI/OG with the PI3K subtype were added (Table 1). Kinase reactions were started by addition of 5 μl of ATP-mix containing in a final volume 10 μL 10 mM TRIS-HCl pH 7.5, 3 mM MgCl2, 50 mM NaCl, 0.05% CHAPS, 1 mM DTT and 1 μM ATP, and occurred at room temperature. Reactions were stopped with 10 μl of KinaseGlo and plates were read 10 mins later in a Synergy2 reader using an integration time of 0.1 seconds per well. […] The standard was used as a reference compound and included in all assay plates in the form of 16 dilution points in duplicate.
The PI3Kα, PI3Kβ and PI3Kδ constructs are fusion of p85α iSH2 domain and the respective p110 isoforms. The p85α fragment and p110 isoform genes were generated by PCR from first strand cDNA generated by RT-PCR from commercial RNA from placenta, testis and brain as described below. […]
The lysate was centrifuged at 45,000 g for 30 minutes, and the supernatant was loaded onto a pre-equilibrated IMAC column (3 mL resin/100 mL lysate). […] Pertinent fractions were analyzed by SDS-PAGE and pooled accordingly. […] Pertinent fractions were analyzed by SDS-PAGE and pooled accordingly. […]

T1 sequence (P42338 with tags, fused parts or gaps limits assumed): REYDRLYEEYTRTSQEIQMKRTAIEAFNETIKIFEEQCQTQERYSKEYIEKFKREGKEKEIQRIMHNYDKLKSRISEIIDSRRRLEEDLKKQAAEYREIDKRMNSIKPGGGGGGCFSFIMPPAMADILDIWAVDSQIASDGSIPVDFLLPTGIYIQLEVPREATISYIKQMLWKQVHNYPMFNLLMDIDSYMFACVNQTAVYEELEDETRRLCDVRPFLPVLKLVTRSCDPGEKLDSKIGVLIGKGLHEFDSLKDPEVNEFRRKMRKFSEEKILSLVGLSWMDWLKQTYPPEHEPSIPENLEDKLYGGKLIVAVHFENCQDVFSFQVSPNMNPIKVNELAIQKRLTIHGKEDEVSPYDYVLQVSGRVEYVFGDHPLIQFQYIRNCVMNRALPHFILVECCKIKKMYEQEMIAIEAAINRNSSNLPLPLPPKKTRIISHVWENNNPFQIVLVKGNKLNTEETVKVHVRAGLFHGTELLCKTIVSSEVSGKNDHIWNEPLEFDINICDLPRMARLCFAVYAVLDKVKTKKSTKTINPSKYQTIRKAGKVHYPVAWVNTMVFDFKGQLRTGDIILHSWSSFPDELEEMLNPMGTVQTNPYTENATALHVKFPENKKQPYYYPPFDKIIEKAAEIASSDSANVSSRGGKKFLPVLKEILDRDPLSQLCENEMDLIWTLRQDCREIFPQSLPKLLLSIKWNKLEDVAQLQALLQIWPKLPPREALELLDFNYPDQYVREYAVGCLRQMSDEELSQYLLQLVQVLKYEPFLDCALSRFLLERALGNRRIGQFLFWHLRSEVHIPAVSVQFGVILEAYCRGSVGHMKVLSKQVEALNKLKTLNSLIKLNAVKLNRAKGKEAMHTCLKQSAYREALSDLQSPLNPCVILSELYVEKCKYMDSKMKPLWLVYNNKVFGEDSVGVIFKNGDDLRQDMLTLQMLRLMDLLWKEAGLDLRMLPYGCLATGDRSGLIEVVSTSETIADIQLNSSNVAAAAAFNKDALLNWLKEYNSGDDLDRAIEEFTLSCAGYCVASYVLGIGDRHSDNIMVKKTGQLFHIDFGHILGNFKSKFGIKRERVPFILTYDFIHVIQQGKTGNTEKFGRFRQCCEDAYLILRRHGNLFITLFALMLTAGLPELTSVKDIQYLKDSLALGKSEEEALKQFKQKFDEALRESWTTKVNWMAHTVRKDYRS

| Compound | IC50 (PI3Kbeta) | IC50 (PI3Kalpha) | IC50 (PI3Kdelta) | IC50 (PI3Kgamma) |
| --- | --- | --- | --- | --- |
| Cc1nc(NC(=O)N2CCC[C@H]2C(N)=O)sc1-c1csc(N2CC3CCC(CC3)C2)n1 [Example 23, (S)-Pyrrolidine-1,2-dicarboxylic acid 2-amide 1-{[2-(3-aza-bicyclo[3.2.2]non-3-yl)-4′-methyl-[4,5]bithiazolyl-2′-yl]-amide}] | 8470 nM | 331 nM | 2370 nM | 1640 nM |
| Cc1nc(NC(=O)N2CCC[C@@]2(C)C(N)=O)sc1-c1csc(CC2CC2)n1 [Example 49, (S)-2-Methyl-pyrrolidine-1,2-dicarboxylic acid 2-amide 1-[(2-cyclopropylmethyl-4′-methyl-[4,5]bithiazolyl-2′-yl)-amide]] | 885 nM | 78 nM | 1260 nM | 928 nM |
| Cc1nc(NC(=O)N2CCC2C(N)=O)sc1-c1csc(C(C)(C)C)n1 (stereo not drawn) [Example 13, Azetidine-1,2-dicarboxylic acid 2-amide 1-[(2-tert-butyl-4′-methyl-[4,5]bithiazolyl-2′-yl)-amide]] | 6860 nM | 54 nM | 622 nM | 2510 nM |

From patent US20100298286A1, “Organic Compounds” (NOVARTIS AG, priority 2007, published 2010)
